Measurements published in paper PMC13267291, “In vivo functional profiling and structural characterization of the human GLP1R A316T variant” (Science Advances, 2026).

What was measured:
[1] = system: hGLP1R^A316T/A316T versus hGLP1R^+/+ mice; assay: IPGTT acutely and 6 hours after GLP-1RA, chow-fed homozygous mice; format: in vivo, mouse; details: chow diet; for Agonist-specific glycemic response (ΔAUC), 6-hour time point, A316T/A316T versus +/+: IPGTT 6 hours postadministration, n = 9; for Agonist-specific glycemic response (ΔAUC), 6-hour time point, A316T/A316T versus +/+ / Agonist-specific glycemic response (ΔAUC, agonist- minus vehicle-treated AUC), acute, A316T/A316T versus +/+: Fig. 1J,K; for Agonist-specific glycemic response (ΔAUC, agonist- minus vehicle-treated AUC), acute, A316T/A316T versus +/+: acute IPGTT, n = 9 per genotype
Protocol: To examine acute and prolonged glycemic responses to GLP-1RAs, animals were fasted for 2 hours, starting at 8 a.m. on the morning of the experiments, before IPGTTs. GLP-1RAs were then coadministered at the indicated concentrations with 20% (w/v) D-glucose via intraperitoneal injection at weight-adjusted volumes. Baseline glucose readings were taken via tail venipuncture, and subsequent readings were taken at various time points after glucose ± GLP-1RA administration as for the OGTTs (0-hour acute IPGTTs). For GLP-1RAs with shorter half-lives (exendin-4 and exendin-F1), IPGTTs were repeated 6 hours after the start of the initial IPGTT, with continued fasting. For the extended half-life GLP-1RA semaglutide, IPGTTs were performed 24 and 72 hours after GLP-1RA administration, with access to food restored at the end of each IPGTT. The in vivo IPGTT studies were performed with a crossover design, with each mouse receiving vehicle and each GLP-1RA treatment with washout periods of at least 1 week between the different GLP-1RA treatments.

[2] = system: human GLP-1R A316T versus WT; assay: Insulin secretion assay in mouse islets; format: cell-based; details: chow-fed mouse islets; 100 nM; 16 hours; n = 4; Fig. 5H
Protocol: Purified mouse islets used for insulin secretion assays were treated in 24-well nonadherent plates. Eight islets were used per replicate with three technical replicates per condition. For acute studies, islets were preincubated for 1 hour in KRBH buffer containing 0.1% (w/v) bovine serum albumin (BSA) (10775835001, Roche) and 3 mM glucose before incubation with 11 mM glucose ± 100 nM GLP-1RAs or the GLP-1R antagonist exendin-9 in KRBH buffer in a shaking 37°C water bath (80 rpm) for 1 hour. For overnight studies, preincubation was carried out in RPMI 1640 medium containing FBS, P/S, and 3 mM glucose, followed by treatment with medium supplemented with 11 mM glucose ± GLP-1RAs for 16 hours. Supernatants containing secreted insulin were collected, centrifuged at 1000 rpm for 1 min, and transferred to fresh tubes. For total insulin content, islets were lysed using acidic ethanol (75% ethanol, 1.5 mM HCl). Lysates were sonicated 3× 10 s each in a water bath and centrifuged at 10,000g for 10 min, and supernatants were collected. For human islets, the same experiment was performed with islets previously transduced with pAV-SNAP/FLAG-hGLP1R^WT or ^A316T adenoviruses (generated by VectorBuilder) at a multiplicity of infection of 1, 24 hours before the start of experiments. Insulin secretion assays with the human EndoC-βH3 cell line were performed following 3 weeks of treatment with 4-hydroxytamoxifen as above, followed by transduction with pAV-SNAP/FLAG-hGLP1R^WT or ^A316T adenoviruses, with insulin secretion assessed as previously described ([54]), with the following modifications: After preincubation with 0.5 mM glucose KRBH buffer, cells were stimulated with 15 mM glucose ± exendin-4 for 60 min. Total and secreted insulin samples from islets and cells were stored at −20°C until quantification using an Insulin Ultra-Sensitive HTRF kit (#62IN2PEG, Revvity) in a PHERAstar plate reader (BMG Labtech), according to the manufacturer’s instructions.

[3] = system: SNAP/FLAG-hGLP1R^A316T versus ^WT; assay: Nb37 bystander NanoBiT assay (plasma membrane and endosomal GLP-1R activity); format: cell-based, human; details: log(Emax/EC50), Fig. 8B,C; for Agonist-induced endosomal A316T activity versus WT: n = 4 (GLP-1), n = 3 (Ex-4)
Protocol: Nb37 bystander NanoBiT assays
INS-1 832/3 Glp1r-/- cells were seeded in 6-well plates and co-transfected with the following plasmids:
200 ng pSNAP/FLAG-hGLP1RWT or A316T, 500 ng Gαs (human, short isoform), 500 ng Gβ1 (human), 500 ng Gγ2 (human), 100 ng RIC8B (human, isoform 2), and either 100 ng LgBiT-CAAX (KRAS CAAX motif N-terminally fused with LgBiT) or 500 ng Endofin-LgBiT (Endofin FYVE domain C-terminally fused with LgBiT), plus 100 ng (plasma membrane assay) or 500 ng (endosomal assay) SmBiT-Nb37 [Nb37 cDNA synthesised by GenScript C- terminally fused to SmBiT with a 15 amino acid flexible linker (123) ] and adjusted for total DNA with pcDNA3.1 for the LgBiT-CAAX transfection. 24 hours after transfection, cells were exposed to NanoGlo Live Cell Reagent (Promega) with furimazine (1:20 dilution) and bioluminescence read in a Flexstation 3 plate reader for 8 min before and 30 min after stimulation by […]
AUCs were calculated for each agonist concentration and fitted to log(agonist) versus response four-parameter curves using GraphPad Prism 10.1.2, with logEC50 (potency) and Emax (efficacy) calculated for each replicate dose response curve. Baseline endosomal over plasma membrane bioluminescence ratios were also calculated.
GLP- 1R conformational ECD opening time resolved-fluorescence resonance energy transfer (TR- […]
INS-1 832/3 Glp1r-/- SNAP/FLAG-hGLP1RWT or A316T cells were labelled with SNAP-Lumi4- Tb (Revvity; 40 nM, 60 min at 37°C in complete medium). After washing to remove unbound probe, cells were resuspended in HBSS ± 100 nM plasma membrane dye NR12A (a gift from Prof Andrey Klymchenko, University of Strasbourg, France) for 5 min before washing again. Labelled cells were transferred to 96-well half-area white plates and baseline TR-FRET signal from Lumi-4Tb (donor) and NR12A (acceptor) recorded for 5 min at 37°C using a Flexstation 3 plate reader with the following settings: λex = 335 nm, λem = 490 and 590 n m, delay 50 µs , integration time 300 µs. GLP-1 was then added at serial doses, and […]

Row | Substance | Agonist-specific glycemic response (ΔAUC), 6-hour time point, A316T/A316T versus +/+ ([1]; 2 nmol/kg ip) | Agonist-specific glycemic response (ΔAUC, agonist- minus vehicle-treated AUC), acute, A316T/A316T versus +/+ ([1]; 2 nmol/kg ip) | IPGTT glucose responses (AUC), A316T/A316T versus +/+ ([1]; 2 nmol/kg ip, acutely and 6 hours postagonist, Fig. 1F-I) | Desensitization at the 6-hour IPGTT versus exendin-4 ([1]; both mouse genotypes) | Agonist-mediated increase in glucose-stimulated insulin secretion (fold over 11 mM glucose) following overnight exposure, A316T/A316T versus +/+ islets [2] | Plasma membrane activity, A316T versus WT [3] | Agonist-induced endosomal A316T activity versus WT [3]
1 | exendin-F1 | absent | similarly reduced | without reaching statistical significance | reduced desensitization | no significantly detrimental effect |  | 
2 | GLP-1(7-36)NH2 |  |  |  |  |  | without changes | tendency to be increased
3 | exendin-4 | paradoxical increase in blood glucose levels compared to vehicle | significantly reduced |  |  | complete loss of the potentiating effect | without changes | significantly reduced
